# Test results taken from patent publication US20230126310A1 (priority 2020, published 2023).
# pIC50: −log10 of the molar value. Counter-ions that a name gives are not always drawn. Like-named read-outs stand apart in the source and are kept apart here.
# Test system: SARS-CoV-2
# Test: microbe, parasite or virus in culture
# Details: Severe acute respiratory syndrome coronavirus 2, Caco-2, 48 h; for inhibition at 10 µM: read-out: % Inh. (% Inhibition of SARS-CoV-2); for IC50: read-out: pIC50 (converted)
Compound,inhibition at 10 µM [%],pIC50,IC50 [µM]
CN1CCc2cc3c(cc2C1O)OCO3 (centres unmarked) [HYDRASTININE HYDROCHLORIDE],56.3,–,–
"CNC(=O)c1cccc(-c2ccc3c(N4CCOC[C@@H]4C)nc(N4CCOC[C@@H]4C)nc3n2)c1 [Vistusertib (AZD2014), Vistusertib]",112,–,–
CN(C)C(=O)C(CCN1CCC(O)(c2ccc(Cl)cc2)CC1)(c1ccccc1)c1ccccc1 [LOPERAMIDE HYDROCHLORIDE],58.9,–,–
Cn1c(NC[C@@H](N)Cc2ccccc2)nc(-c2ccncc2)c(-c2ccc3ccccc3c2)c1=O [AMG-548],89,–,–
Clc1ccccc1C(c1ccccc1)(c1ccccc1)n1ccnc1 [CLOTRIMAZOLE],81.7,–,–
N[C@H](C(=O)O)c1ccc(O)cc1 [oxfenicine],50.7,–,–
N#CC(=C(/N)Sc1ccccc1N)/C(C#N)=C(\N)Sc1ccccc1N [U-0126],79.1,–,–
CCOC(=O)Nc1cc2c(c(N)n1)N=C(c1ccccc1)[C@H](C)N2 [mivobulin],65,–,–
N#CC(c1ccnc(OCc2ccc(CN3CCOCC3)cc2)n1)c1nc2ccccc2s1 (centres unmarked) [Bentamapimod],78.4,5.29,5.13
Cc1nc(C#Cc2ccnc(Cl)c2)c(C)n1-c1ccc(F)cc1 [Basimglurant],–,4.60,25.1
CC(=O)NC(Cc1ccccc1)C(=O)O (centres unmarked) [AFALANINE],62.1,–,–
CNC(=O)[C@@H](NC(=O)[C@H](CC(C)C)[C@H](O)C(=O)NO)C(C)(C)C [Marimastat],68.7,–,–
OC1(c2ccc(Cl)c(C(F)(F)F)c2)CCN(CCCC(c2ccc(F)cc2)c2ccc(F)cc2)CC1 [PENFLURIDOL],85.9,–,–
CCN(CC)Cc1cc(Nc2ccnc3cc(Cl)ccc23)ccc1O [AMODIAQUINE DIHYDROCHLORIDE],78.8,–,–
Oc1cccc(-c2c3nc(c(-c4cccc(O)c4)c4ccc([nH]4)c(-c4cccc(O)c4)c4nc(c(-c5cccc(O)c5)c5ccc2[nH]5)CC4)C=C3)c1 [Temoporfin],85.9,–,–
CC(C)Oc1ccc2c(=O)c(-c3ccccc3)coc2c1 [IPRIFLAVONE],51.4,–,–
COC(=O)C1=C(C)NC(C)=C(C(=O)OCCCN2CCC(c3ccccc3)(c3ccccc3)CC2)[C@@H]1c1cccc([N+](=O)[O-])c1 [dexniguldipine],97.6,4.45,35.5
Cc1ccccc1-n1c(CF)nc2ccc(N)cc2c1=O [Afloqualone],50.1,–,–
"COC[C@H](NC(=O)c1cnc(C)s1)C(=O)N[C@@H](COC)C(=O)N[C@@H](Cc1ccccc1)C(=O)[C@@]1(C)CO1 [Oprozomib (ONX 0912), Oprozomib]",52.7,–,–
"Cc1ccc(C(=O)N(CCCN)[C@@H](c2nc3cc(Cl)ccc3c(=O)n2Cc2ccccc2)C(C)C)cc1 [Ispinesib (SB-715992), Ispinesib]",91.9,–,–
CCN(CC)CCNc1ccc(CO)c2sc3ccccc3c(=O)c12 [Hycanthone],60.2,–,–
CCCCCCCCCCCCCCCC[N+](C)(C)Cc1ccccc1 [Benzyldimethylhexadecylammonium chloride hydrate],57,–,–
"CCc1cnn2c(NCc3ccc[n+]([O-])c3)cc(N3CCCC[C@H]3CCO)nc12 [Dinaciclib (SCH727965), Dinaciclib]",79.4,–,–

Compound,inhibition at 10 µM [%],pIC50,IC50 [µM]
CCCCN(CC)c1nc(C)nc2c1c(C)c(C)n2-c1c(C)cc(C)cc1C [antalarmin],59,–,–
c1ccc(-c2ccc(C(c3ccccc3)n3ccnc3)cc2)cc1 (centres unmarked) [BIFONAZOLE],70.8,–,–
COc1cc2nccc(Oc3ccc(NC(=O)C4(C(=O)Nc5ccc(F)cc5)CC4)cc3)c2cc1OC [cabozantinib],57.5,–,–
CC(=O)Oc1c(C)cc(OCC(O)CNC(C)C)c(C)c1C (centres unmarked) [metipranolol],54.6,–,–
CS(=O)(=O)CCNCc1nc(-c2ccc3ncnc(Nc4ccc(OCc5cccc(F)c5)c(Cl)c4)c3c2)cs1 [GW-583340],60.1,–,–
Clc1ccc(C(Cn2ccnc2)OCc2ccc(Sc3ccccc3)cc2)c(Cl)c1 (centres unmarked) [Fenticonazole nitrate],105,–,–
Cc1c(O)cccc1C(=O)N[C@@H](CSc1ccccc1)[C@H](O)CN1C[C@H]2CCCC[C@H]2C[C@H]1C(=O)NC(C)(C)C [Nelfinavir Mesylate],88.6,5.58,2.63
Cc1ccc(Oc2ccccc2-c2csc(N=C3NCCCN3)n2)c(C)c1 [Abafungin],92.9,–,–
"C[C@@]1(O)[C@H](O)[C@@H](CO)O[C@H]1n1ccc(N)nc1=O [NM107, 2′-C-methylcytidine, 2′-C-methylcytidine]",60.1,–,–
CC(=O)OCC(=O)[C@@]1(O)CC[C@H]2[C@@H]3CCC4=CC(=O)C=C[C@]4(C)[C@@]3(F)[C@@H](O)C[C@@]21C [isoflupredone-acetate],80.6,–,–
C[C@H]1C[C@H]2[C@@H]3CCC4=CC(=O)C=C[C@]4(C)[C@@]3(F)[C@@H](O)C[C@]2(C)[C@@]1(O)C(=O)CO [BETAMETHASONE],50.6,–,–
CN1CCC(Nc2ncc3ncnc(Nc4ccc(F)c(Cl)c4)c3n2)CC1 [BIBX-1382],79.3,–,–
CN(C)CC/C=C1/c2ccccc2Sc2ccc(Cl)cc21 [CHLORPROTHIXENE HYDROCHLORIDE],55.6,–,–
Clc1ccc(C(Cn2ccnc2)OCc2ccsc2Cl)c(Cl)c1 (centres unmarked) [TIOCONAZOLE],50.6,–,–
CCOC(=O)C1=C(C)NC(C)=C(C(=O)OC)C1c1cccc(Cl)c1Cl (centres unmarked) [FELODIPINE],51.2,–,–
NC(=O)N1C(=O)/C(=C(\O)c2cccs2)c2cc(Cl)ccc21 [tenidap],75.2,–,–
CCCCCCCCCCCCCCCC[N+](C)(C)CCN(Cc1ccc(OC)cc1)c1ncccn1 [thonzonium bromide],76.4,–,–
Cc1cc(N)c2ccccc2[n+]1CCCCCCCCCC[n+]1c(C)cc(N)c2ccccc21 [DEQUALINIUM CHLORIDE],65.6,–,–
CS[C@H]1SC[C@H]2C(=O)N(C)[C@@H](C(C)C)C(=O)OC[C@@H](NC(=O)c3cnc4ccccc4n3)C(=O)N[C@@H](C)C(=O)N(C)[C@@H]1C(=O)N(C)[C@@H](C(C)C)C(=O)OC[C@@H](NC(=O)c1cnc3ccccc3n1)C(=O)N[C@@H](C)C(=O)N2C [Echinomycin],77.5,–,–
COC(=O)[C@H]1[C@H]2C[C@@H]3c4[nH]c5cc(OC)ccc5c4CCN3C[C@H]2C[C@@H](OC(=O)c2cc(OC)c(OC)c(OC)c2)[C@@H]1OC [RESERPINE],67.8,–,–
O=C(O)c1ccccc1O [SALICYLIC ACID],71.3,–,–
C[C@@H]1CN(Cc2ccc(F)cc2)[C@@H](C)CN1C(=O)c1cc2c(C(=O)C(=O)N(C)C)cn(C)c2cc1Cl [talmapimod],92.3,4.64,22.9
CCCCC(CC)CNC(=N)NC(=N)NCCCCCCNC(=N)NC(=N)NCC(CC)CCCC (centres unmarked) [Alexidine dihydrochloride],76.3,–,–

Compound,inhibition at 10 µM [%],pIC50,IC50 [µM]
CCCC1O[C@@H]2C[C@H]3[C@@H]4CCC5=CC(=O)C=C[C@]5(C)[C@H]4[C@@H](O)C[C@]3(C)[C@]2(C(=O)CO)O1 (some centres unmarked) [budesonide],74.4,–,–
COc1cc(C(=O)NC2CCN(C)CC2)c(F)cc1Nc1ncc2c(n1)N(C1CCCC1)CC(F)(F)C(=O)N2C [TAK-960],91.6,–,–
Cc1cc(C(C#N)c2ccc(Cl)cc2)c(Cl)cc1NC(=O)c1cc(I)cc(I)c1O (centres unmarked) [CLOSANTEL],80,–,–
Cc1cc(Nc2ncc(Cl)c(Nc3ccccc3S(=O)(=O)C(C)C)n2)c(OC(C)C)cc1C1CCNCC1 [Ceritinib],60,–,–
"C[C@]1(O)C[C@@H](c2nc(-c3ccc4ccc(-c5ccccc5)nc4c3)c3c(N)nccn32)C1 [OSI-906 (Linsitinib), Linsitinib]",110,4.60,25.1
COc1ccc(CCNCC(O)COc2cccc(C)c2)cc1OC (centres unmarked) [Bevantolol HCl],77.1,–,–
C1CCC(C(CC2CCCCN2)C2CCCCC2)CC1 (centres unmarked) [PERHEXILINE MALEATE],55.4,–,–
"O=C(NC[C@H](O)CO)c1ccncc1Nc1ccc(I)cc1F [Pimasertib (AS-703026), Pimasertib]",53.2,–,–
COc1cccc([C@@H](C)NCCCc2ccccc2Cl)c1 [tecalcet],78.1,–,–
COc1ccc(CCc2nc3cc(-c4c(C)noc4C)ccc3n2C[C@H](C)N2CCOCC2)cc1Cl [SGC-CBP30],59.2,–,–
Oc1c(Cl)cc(Cl)c(Cl)c1Cc1c(O)c(Cl)cc(Cl)c1Cl [HEXACHLOROPHENE],92.9,–,–
"Cn1c(=O)n(-c2ccc(C(C)(C)C#N)cc2)c2c3cc(-c4cnc5ccccc5c4)ccc3ncc21 [Dactolisib (BEZ235, NVP-BEZ235), Dactolisib]",91.8,–,–
NCCC(Oc1ccc(C(F)(F)F)cc1)c1ccccc1 (centres unmarked) [norfluoxetine],95,–,–
CC1(C)CC(=O)c2c(C(F)(F)F)nn(-c3ccc(C(N)=O)c(N[C@H]4CC[C@H](O)CC4)c3)c2C1 [SNX-2112],96.6,–,–
c1ccc(C(O[C@@H]2CCCN(CCc3ccc4c(c3)OCO4)C2)c2ccccc2)cc1 [zamifenacin],58.3,–,–
CC1(C)S[C@@H]2[C@H](N3C(=O)[C@@H](c4ccccc4)NC3(C)C)C(=O)N2[C@H]1C(=O)O [HETACILLIN POTASSIUM],67.1,–,–
CCNC(=O)Nc1ccc(-c2nc3c(c(N4CCOC[C@@H]4C)n2)CCN(C2COC2)C3)cc1 [GDC-0349],83.8,–,–
CC(=O)Nc1cccc(-n2c(=O)n(C3CC3)c(=O)c3c(Nc4ccc(I)cc4F)n(C)c(=O)c(C)c32)c1 [Trametinib],76.6,–,–
OC[C@H]1O[C@@H](n2cnc3c(NC4CCCC4)nc(Cl)nc32)[C@H](O)[C@@H]1O [2-chloro-N6-cyclopentyladenosine],57.7,–,–
NC(=O)NS(=O)(=O)c1ccc(N)cc1 [SULFACARBAMIDE],58.1,–,–
CNCC(O)c1ccc(OC(=O)C(C)(C)C)c(OC(=O)C(C)(C)C)c1 (centres unmarked) [dipivefrine],54,–,–
CC(C)(C)NC[C@H](O)COc1cccc2c1CCCC2=O [levobunolol],64.5,–,–
COc1ccccc1N1CCN(CC(O)COc2cccc3ccccc23)CC1 (centres unmarked) [NAFTOPIDIL],90.6,–,–
